Source: patent US8940350B2, “Cereal compositions comprising high-potency sweeteners” (The Coca-Cola Company, priority 2005, dated 2015)

Test: Rate of dissolution in H2O at 25° C. of rebaudioside A polymorph and amorphous forms
Assay type: physicochemical
Details: grade in words

Substance | Rate of dissolution in H2O at 25° C.
rebaudioside A [Form 2] | Intermediate
rebaudioside A [Form 3] | High
rebaudioside A [Form 4] | High
rebaudioside A [Form 1] | Very low
